Measured values reported in PubChem BioAssay (NCI).
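How tested: cells in 96-well plates exposed to compound for 48 hours at five concentrations. At the GI50, growth is halved. Definition used: TGI = concentration required for complete inhibition of growth.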

Columns and labels:
Assay in all cases: DTP human tumour cell line panel, 48 h
SK-MEL-5 melanoma = system: SK-MEL-5 melanoma
SN12C renal = system: SN12C renal
LOX IMVI melanoma = system: LOX IMVI melanoma
OVCAR-3 ovarian = system: OVCAR-3 ovarian
NCI-H460 lung = system: NCI-H460 lung
CAKI-1 renal = system: CAKI-1 renal
HS 578T breast = system: HS 578T breast
SF-268 CNS = system: SF-268 CNS
IGROV1 ovarian = system: IGROV1 ovarian
TK-10 renal = system: TK-10 renal
SW-620 colon = system: SW-620 colon
SR leukemia = system: SR leukemia
MCF7 breast = system: MCF7 breast
RXF 393 renal = system: RXF 393 renal
HCC-2998 colon = system: HCC-2998 colon
MALME-3M melanoma = system: MALME-3M melanoma
A549 NSCLC = system: A549 NSCLC
PC-3 prostate = system: PC-3 prostate
SF-295 CNS = system: SF-295 CNS
M14 melanoma = system: M14 melanoma
OVCAR-5 ovarian = system: OVCAR-5 ovarian
KM12 colon = system: KM12 colon
OVCAR-4 ovarian = system: OVCAR-4 ovarian
SK-OV-3 ovarian = system: SK-OV-3 ovarian
NCI-H23 lung = system: NCI-H23 lung
HL-60(TB) leukemia = system: HL-60(TB) leukemia
HCT-116 colon = system: HCT-116 colon
HOP-62 NSCLC = system: HOP-62 NSCLC
EKVX NSCLC = system: EKVX NSCLC
CCRF-CEM leukemia = system: CCRF-CEM leukemia
SNB-19 CNS = system: SNB-19 CNS
K-562 leukemia = system: K-562 leukemia
SF-539 CNS = system: SF-539 CNS
U251 CNS = system: U251 CNS
UACC-62 melanoma = system: UACC-62 melanoma
COLO 205 colon = system: COLO 205 colon
UO-31 renal = system: UO-31 renal
NCI-H226 lung = system: NCI-H226 lung
MDA-MB-435 = system: MDA-MB-435
NCI-H522 lung = system: NCI-H522 lung
ACHN renal = system: ACHN renal
HCT-15 colon = system: HCT-15 colon
SNB-75 CNS = system: SNB-75 CNS
A498 renal = system: A498 renal
DU-145 prostate = system: DU-145 prostate
UACC-257 melanoma = system: UACC-257 melanoma
HOP-92 NSCLC = system: HOP-92 NSCLC
NCI/ADR-RES ovarian = system: NCI/ADR-RES ovarian
786-0 renal = system: 786-0 renal
OVCAR-8 ovarian = system: OVCAR-8 ovarian
BT-549 breast = system: BT-549 breast
MOLT-4 leukemia = system: MOLT-4 leukemia
T-47D breast = system: T-47D breast
SK-MEL-28 melanoma = system: SK-MEL-28 melanoma
MDA-MB-231 breast = system: MDA-MB-231 breast
HT29 colon = system: HT29 colon
SK-MEL-2 melanoma = system: SK-MEL-2 melanoma

CC(C)(O)c1ccc(N2CCN(c3nnc(Cc4ccccc4)c4ccccc34)CC2)nc1 was tested, and the GI50 (SK-MEL-5 melanoma) was 2.84 µM, the TGI (SK-MEL-5 melanoma) was 8.64 µM and the GI50 (SN12C renal) was 7.32 µM. It also gave a TGI (SN12C renal) of 33 µM, a GI50 (LOX IMVI melanoma) of 14 µM and a TGI (LOX IMVI melanoma) of 35.5 µM. The GI50 (OVCAR-3 ovarian) was 10.4 µM, the TGI (OVCAR-3 ovarian) was 47.5 µM and the GI50 (NCI-H460 lung) was 9.83 µM. The TGI (NCI-H460 lung) was 34.3 µM, the GI50 (CAKI-1 renal) was 11.3 µM and the TGI (CAKI-1 renal) was 30.9 µM. For the same compound, the GI50 (HS 578T breast) was 15.3 µM, the TGI (HS 578T breast) was 41.4 µM and the GI50 (SF-268 CNS) was 13.8 µM. It also gave a TGI (SF-268 CNS) of 33.5 µM, a GI50 (IGROV1 ovarian) of 12.1 µM and a TGI (IGROV1 ovarian) of 28.4 µM. The GI50 (TK-10 renal) was 13.4 µM, the TGI (TK-10 renal) was 38.1 µM and the GI50 (SW-620 colon) was 17.1 µM. The TGI (SW-620 colon) was 38.5 µM, the GI50 (SR leukemia) was 18.6 µM and the TGI (SR leukemia) was greater than 100 µM. The GI50 (MCF7 breast) was 7.05 µM, the TGI (MCF7 breast) was 21.7 µM and the GI50 (RXF 393 renal) was 6.76 µM. It also gave a TGI (RXF 393 renal) of 23.6 µM, a GI50 (HCC-2998 colon) of 14 µM and a TGI (HCC-2998 colon) of 27.8 µM. For the same compound, the GI50 (MALME-3M melanoma) was 5.28 µM, the TGI (MALME-3M melanoma) was 17.9 µM and the GI50 (A549 NSCLC) was 6.98 µM. The TGI (A549 NSCLC) was 25.1 µM, the GI50 (PC-3 prostate) was 10.7 µM and the TGI (PC-3 prostate) was greater than 56.5 µM. The GI50 (SF-295 CNS) was 4.16 µM, the TGI (SF-295 CNS) was 16.7 µM and the GI50 (M14 melanoma) was 8.86 µM. The TGI (M14 melanoma) was 23 µM, the GI50 (OVCAR-5 ovarian) was 17.2 µM and the TGI (OVCAR-5 ovarian) was 38.9 µM. For the same compound, the GI50 (KM12 colon) was 13.2 µM, the TGI (KM12 colon) was 29.5 µM and the GI50 (OVCAR-4 ovarian) was 3.99 µM. For the same compound, the TGI (OVCAR-4 ovarian) was 26.3 µM, the GI50 (SK-OV-3 ovarian) was 18.7 µM and the TGI (SK-OV-3 ovarian) was 61.9 µM. The GI50 (NCI-H23 lung) was 5.68 µM, the TGI (NCI-H23 lung) was 28.4 µM and the GI50 (HL-60(TB) leukemia) was 7.44 µM. The TGI (HL-60(TB) leukemia) was 31.1 µM, the GI50 (HCT-116 colon) was 8.25 µM and the TGI (HCT-116 colon) was 54.1 µM. For the same compound, the GI50 (HOP-62 NSCLC) was 13.7 µM, the TGI (HOP-62 NSCLC) was 28.6 µM and the GI50 (EKVX NSCLC) was 4 µM. For the same compound, the TGI (EKVX NSCLC) was 19.8 µM, the GI50 (CCRF-CEM leukemia) was 8.26 µM and the TGI (CCRF-CEM leukemia) was greater than 93 µM. The GI50 (SNB-19 CNS) was 15.8 µM, the TGI (SNB-19 CNS) was 67.1 µM and the GI50 (K-562 leukemia) was 4.81 µM. For the same compound, the TGI (K-562 leukemia) was greater than 72.9 µM, the GI50 (SF-539 CNS) was 12.7 µM and the TGI (SF-539 CNS) was 29.2 µM. For the same compound, the GI50 (U251 CNS) was 13.2 µM, the TGI (U251 CNS) was 37.3 µM and the GI50 (UACC-62 melanoma) was 8.44 µM. It also gave a TGI (UACC-62 melanoma) of 21.9 µM, a GI50 (COLO 205 colon) of 5.41 µM and a TGI (COLO 205 colon) of 16 µM. For the same compound, the GI50 (UO-31 renal) was 3.49 µM, the TGI (UO-31 renal) was 19.5 µM and the GI50 (NCI-H226 lung) was 5.76 µM. For the same compound, the TGI (NCI-H226 lung) was 22.4 µM, the GI50 (MDA-MB-435) was 10 µM and the TGI (MDA-MB-435) was 22.8 µM. For the same compound, the GI50 (NCI-H522 lung) was 6.32 µM, the TGI (NCI-H522 lung) was 20.7 µM and the GI50 (ACHN renal) was 11.3 µM. The TGI (ACHN renal) was 47.7 µM, the GI50 (HCT-15 colon) was 8.31 µM and the TGI (HCT-15 colon) was 28.7 µM. For the same compound, the GI50 (SNB-75 CNS) was 9.74 µM, the TGI (SNB-75 CNS) was 24.5 µM and the GI50 (A498 renal) was 13.9 µM. The TGI (A498 renal) was 42.5 µM, the GI50 (DU-145 prostate) was 12.1 µM and the TGI (DU-145 prostate) was 34.8 µM. For the same compound, the GI50 (UACC-257 melanoma) was 8.59 µM, the TGI (UACC-257 melanoma) was 21.7 µM and the GI50 (HOP-92 NSCLC) was 7.74 µM. The TGI (HOP-92 NSCLC) was 38.7 µM, the GI50 (NCI/ADR-RES ovarian) was 4.09 µM and the TGI (NCI/ADR-RES ovarian) was 46.8 µM. It also gave a GI50 (786-0 renal) of 14.6 µM, a TGI (786-0 renal) of 45.7 µM and a GI50 (OVCAR-8 ovarian) of 8.01 µM. For the same compound, the TGI (OVCAR-8 ovarian) was 42.5 µM, the GI50 (BT-549 breast) was 6.28 µM and the TGI (BT-549 breast) was 24 µM. The GI50 (MOLT-4 leukemia) was 5.4 µM, the TGI (MOLT-4 leukemia) was 25.7 µM and the GI50 (T-47D breast) was 2.71 µM. It also gave a TGI (T-47D breast) of 14.6 µM, a GI50 (SK-MEL-28 melanoma) of 12 µM and a TGI (SK-MEL-28 melanoma) of 24.9 µM. It also gave a GI50 (MDA-MB-231 breast) of 5.95 µM, a TGI (MDA-MB-231 breast) of 32.2 µM and a GI50 (HT29 colon) of 12 µM. It also gave a TGI (HT29 colon) of 37.7 µM, a GI50 (SK-MEL-2 melanoma) of 9.57 µM and a TGI (SK-MEL-2 melanoma) of 26.2 µM.
